pIC50: −log10 of the molar value.
Experiments:
ER-α = biological target: T1, ER-α (Homo sapiens, UniProt P03372); assay: Breast Cancer Cell ER-α In Cell Western Assay (SP1); assay type: cell-based; details: MCF-7 cells, 4 or 24 hr post compound addition, SP1 antibody; for Emax: MCF7, read-out: ER-α In Cell Western Assay (SP1) Max Response; for DC50: read-out: ER-α In Cell Western Assay (SP1) IC50
T1 construct: endogenous in cells; host or cells: MCF-7
T1 sequence (P03372 1-595): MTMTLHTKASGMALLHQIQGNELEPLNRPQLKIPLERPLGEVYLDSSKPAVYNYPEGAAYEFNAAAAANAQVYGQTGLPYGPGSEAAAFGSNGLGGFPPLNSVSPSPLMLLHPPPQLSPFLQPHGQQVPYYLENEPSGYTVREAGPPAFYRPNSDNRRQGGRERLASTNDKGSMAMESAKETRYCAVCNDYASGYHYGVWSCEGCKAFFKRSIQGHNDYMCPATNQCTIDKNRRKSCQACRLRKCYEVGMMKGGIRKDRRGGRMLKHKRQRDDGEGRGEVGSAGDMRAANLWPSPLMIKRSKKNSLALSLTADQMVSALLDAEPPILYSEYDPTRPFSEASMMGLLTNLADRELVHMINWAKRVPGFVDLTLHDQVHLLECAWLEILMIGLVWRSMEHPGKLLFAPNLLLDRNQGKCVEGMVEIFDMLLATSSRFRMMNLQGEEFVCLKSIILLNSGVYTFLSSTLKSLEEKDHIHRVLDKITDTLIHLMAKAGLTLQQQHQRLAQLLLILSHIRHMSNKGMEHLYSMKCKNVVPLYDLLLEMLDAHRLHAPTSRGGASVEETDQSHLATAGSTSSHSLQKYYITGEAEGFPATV
Outline: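 MCF-7 cells in RPMI with 10% charcoal-stripped FBS received an eleven-point semilog series, 0.3-0.000003 μM final, for 4 or 24 hr. After fixation, ER-α stained with SP1 antibody and IRDye 800 CW, DNA with DRAQ5; % ER = 800/700 nm intensity ratio relative to untreated cells.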

MCF-7 cells = assay: MCF7 Viability Assay (Breast Cancer Cell Viability Assay); assay type: cell-based; details: 5 days' compound exposure, CellTiter-Glo; for pIC50: Homo sapiens, MCF7, 120 h
Outline: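 Cells (320 per well, RPMI with 10% FBS and 20 mM HEPES) adhered overnight, then were exposed 5 days to an eleven-point semilog compound series, 0.3-0.000003 μM final. Viability read by CellTiter-Glo luminescence, background-subtracted, expressed as % of untreated cells.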

Row | Structure (SMILES) | Emax (ER-α) [%] | DC50 (ER-α) [nM] | pIC50 (MCF-7 cells) | MCF7 Viability Assay Max Response (MCF-7 cells)
1 | O=C(O)/C=C/c1ccc(/C(=C(\c2ccncc2Cl)C2CCC2)c2ccc(-c3cncs3)cc2)cc1 [Example 34, (E)-3-(4-((E)-2-(3-Chloropyridin-4-yl)-2-cyclobutyl-1-(4-(thiazol-5-yl)phenyl)vinyl)phenyl)acrylic acid] | ≥ 40 | ≤ 100 | ≥ 7.00 | ++ (++ = a single % value ≧ 40%)
2 | CC/C(=C(/c1ccc(/C=C/C(=O)O)cc1)c1cccc(-c2ccn[nH]2)c1)c1ccccc1 [Example 7, (E)-3-(4-((E)-1-(3-(1H-Pyrazol-5-yl)phenyl)-2-phenylbut-1-en-1-yl)phenyl)acrylic acid] | ≥ 40 | > 100 | < 7.00 | + (+ = a single % value < 40%)
3 | CC/C(=C(/c1ccc(/C=C/C(=O)O)cc1)c1ccc(N2CCCCC2)cc1)c1ccccc1 [Example 24, (E)-3-(4-((E)-2-Phenyl-1-(4-(piperidin-1-yl)phenyl)but-1-en-1-yl)phenyl)acrylic acid] | ≥ 40 | > 100 | < 7.00 | ++ (++ = a single % value ≧ 40%)
4 | O=C(O)/C=C/c1ccc(/C(=C(\c2ccccc2)C2CCC2)c2ccc(-c3cn[nH]c3)cc2)cc1 [Example 1, (E)-3-(4-((E)-1-(4-(1H-Pyrazol-4-yl)phenyl)-2-cyclobutyl-2-phenylvinyl)phenyl)acrylic acid] | ≥ 40 | ≤ 100 | ≥ 7.00 | ++ (++ = a single % value ≧ 40%)
5 | CC/C(=C(/c1ccc(/C=C/C(=O)O)cc1)c1ccc(-c2cncs2)cc1)c1ccccc1Cl [Example 29, (E)-3-(4-((E)-2-(2-Chlorophenyl)-1-(4-(thiazol-5-yl)phenyl)but-1-en-1-yl)phenyl)acrylic acid] | ≥ 40 | ≤ 100 | ≥ 7.00 | ++ (++ = a single % value ≧ 40%)

More lines, main results first:

Row | Emax (ER-α) [%] | DC50 (ER-α) [nM] | pIC50 (MCF-7 cells) | Structure (SMILES) | MCF7 Viability Assay Max Response (MCF-7 cells)
6 | ≥ 40 | ≤ 100 | ≥ 7.00 | O=C(O)/C=C/c1ccc(/C(=C(\c2ccc(C(F)(F)F)cc2Cl)C2CCC2)c2ccc(N3CCOCC3)cc2)cc1 [Example 48, (E)-3-(4-((E)-2-(2-Chloro-4-(trifluoromethyl)phenyl)-2-cyclobutyl-1-(4-morpholinophenyl)vinyl)phenyl)acrylic acid] | ++ (++ = a single % value ≧ 40%)
7 | ≥ 40 | ≤ 100 | ≥ 7.00 | N#Cc1ccc(/C(=C(\c2ccc(/C=C/C(=O)O)cc2)c2ccc(N3CCOCC3)cc2)C2CCC2)c(Cl)c1 [Example 45, (E)-3-(4-((E)-2-(2-Chloro-4-cyanophenyl)-2-cyclobutyl-1-(4-morpholinophenyl)vinyl)phenyl)acrylic acid] | ++ (++ = a single % value ≧ 40%)
8 | ≥ 40 | ≤ 100 | ≥ 7.00 | N#Cc1cc(Cl)ccc1/C(=C(\c1ccc(/C=C/C(=O)O)cc1)c1ccc(-c2cn[nH]c2)cc1)C1CCC1 [Example 44, (E)-3-(4-((E)-1-(4-(1H-Pyrazol-4-yl)phenyl)-2-(4-chloro-2-cyanophenyl)-2-cyclobutylvinyl)phenyl)acrylic acid] | ++ (++ = a single % value ≧ 40%)
9 | ≥ 40 | ≤ 100 | ≥ 7.00 | COc1ccc(/C(=C(\c2ccc(/C=C/C(=O)O)cc2)c2ccc(-c3cn[nH]c3)cc2)C2CCC2)c(Cl)c1 [Example 51, (E)-3-(4-((E)-1-(4-(1H-Pyrazol-4-yl)phenyl)-2-(2-chloro-4-methoxyphenyl)-2-cyclobutylvinyl)phenyl)acrylic acid] | ++ (++ = a single % value ≧ 40%)
10 | ≥ 40 | ≤ 100 | ≥ 7.00 | N#Cc1cc(N2CCOCC2)ccc1/C(=C(/c1ccc(F)cc1Cl)C1CCC1)c1ccc(/C=C/C(=O)O)cc1 [Example 60, (E)-3-(4-((E)-2-(2-Chloro-4-fluorophenyl)-1-(2-cyano-4-morpholinophenyl)-2-cyclobutylvinyl)phenyl)acrylic acid] | ++ (++ = a single % value ≧ 40%)
